Here are results for 67 molecules from US20110053897A1 (IRM LLC, priority 2009, published 2011).

The assay deals with T1, Syk kinase (Homo sapiens, UniProt P43405).
T1 construct: purchased
Description: Syk kinase inhibition, Caliper LabChip off-chip mobility-shift kinase assay. The assay is classed as biochemical. The following applies: Caliper LabChip assay; read-out: Syk Enzyme IC50. The method, boiled down: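 Purified Syk pre-incubated 15 min with compound in 100 mM HEPES pH 7.5, 1 mM DTT, 10 mM MgCl2 or MnCl2, 0.002% Brij-35, then 1.5 μM fluorescein peptide and ATP at apparent KM added; 1–1.5 h at room temperature, 4% DMSO, EDTA stop. Microfluidic mobility-shift product/substrate conversion gave % inhibition; IC50 from 12-point series (10–0.00003 μM) by 4-parameter fit.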
Broadly, the IC50 is the point on the concentration scale where inhibition reaches its midpoint. Regarding `CC(C)(C)Nc1nc(-c2cnc(N)c(CO)c2)cc2ccn(CCO)c(=O)c12` [compound 720], the IC50 amounted to 75 nM.
Then `CC(O)c1ccnc(Nc2cc3ccn(CC(N)=O)c(=O)c3c(NC3(C)CCC3)n2)c1` (stereo not shown) [compound 721], with 18 nM; and `CC1(Nc2nc(Nc3cc(C(C)(C)O)ccn3)cc3ccn(CC(N)=O)c(=O)c23)CCC1` [compound 722], with 155 nM.
Then `CC(O)c1ccnc(Nc2cc3ccn(CC(N)=O)c(=O)c3c(NC3(C)CC3)n2)c1` (stereo not shown) [compound 723], with 48 nM.
Then `CC1(Nc2nc(Nc3cc(C(C)(C)O)ccn3)cc3ccn(CC(N)=O)c(=O)c23)CC1` [compound 724], with 203 nM; and `CC(O)c1ccnc(Nc2cc3ccn(CC(N)=O)c(=O)c3c(NC(C)(C)C)n2)c1` (stereo not shown) [compound 725], with 31 nM.
`CC(C)(C)Nc1nc(Nc2cc(C(C)(C)O)ccn2)cc2ccn(CC(N)=O)c(=O)c12` [compound 726]: the IC50 was 108 nM.
Then `CC(O)c1cc(Nc2cc3ccn(CCO)c(=O)c3c(NC(C)(C)C)n2)ncn1` (stereo not shown) [compound 727], with 30 nM; and `CC(C)(C)Nc1nc(Nc2cc(C(C)(C)O)c(Cl)cn2)cc2ccn(CCO)c(=O)c12` [compound 728], with 283 nM.
Then `CC1(Nc2nc(Nc3cc(C(C)(C)O)ncn3)cc3ccn(CC(O)CO)c(=O)c23)CC1` (stereo not shown) [compound 729], with 31 nM.
Then `CC(C)(C)Nc1nc(Nc2cc(C(C)(C)O)ncn2)cc2ccn(CC(O)CO)c(=O)c12` (stereo not shown) [compound 730], with 42 nM.
As for `CC(C)(O)Cn1ccc2cc(Nc3cc(C(C)(C)O)ncn3)nc(NC(C)(C)C)c2c1=O` [compound 731], the IC50 worked out at 109 nM.
With `CC1(Nc2nc(Nc3cc(C(C)(C)O)ncn3)cc3ccn(CC(O)CO)c(=O)c23)CCC1` (stereo not shown) [compound 732], the half-inhibitory concentration (IC50) amounted to 35 nM.
Then `CC(C)(O)Cn1ccc2cc(Nc3cc(C(C)(C)O)ncn3)nc(NC3(C)CCC3)c2c1=O` [compound 733], with 92 nM; and `COc1cc(Nc2cc3ccn(CCO)c(=O)c3c(NC(C)(C)C)n2)ncn1` [compound 735], with 50 nM.
Turning to `CC(C)(C)Nc1nc(Nc2ccncn2)cc2ccn(CCO)c(=O)c12` [compound 736], the half-inhibitory concentration (IC50) was determined as 90 nM.
Then `CC(C)(C)Nc1nc(-c2cnc(N)nc2)cc2ccn(CCS(C)(=O)=O)c(=O)c12` [compound 737], with 20 nM.
Then `CC(C)(C)Nc1nc(Nc2cnccn2)cc2ccn(CCS(C)(=O)=O)c(=O)c12` [compound 738, 8-(tert-butylamino)-2-(2-(methylsulfonyl)ethyl)-6-(pyrazin-2-ylamino)-2,7-naphthyridin-1(2H)-one], with 9 nM.
Then `CC(C)(C)Nc1nc(Nc2cc(C(C)(C)O)ncn2)cc2ccn(CCS(C)(=O)=O)c(=O)c12` [compound 739], with 35 nM.
On to `CC(C)(C)Nc1nc(Nc2cc(C(C)(C)O)ncn2)cc2ccn(C[C@H](O)CO)c(=O)c12` [compound 740], for which the IC50 turned out to be 54 nM.
Take `CC(C)(C)Nc1nc(Nc2cc(C(C)(C)O)ncn2)cc2ccn(C(CO)CO)c(=O)c12` [compound 741]: the concentration for half-maximal inhibition (IC50) turned out to be 22.2 nM.
Then `N#CCn1ccc2cc(-c3cnc(N)nc3)nc(NC3CCOCC3)c2c1=O` [compound 742], with 34 nM.
Then `CCn1ccc2cc(-c3cnc(N)nc3)nc(N)c2c1=O` [compound 743, 8-amino-6-(2-aminopyrimidin-5-yl)-2-ethyl-2,7-naphthyridin-1(2H)-one], with 287 nM.
Then `CCn1ccc2cc(-c3cnc(N)nc3)nc(NS(C)(=O)=O)c2c1=O` [compound 744, N-(3-(2-Aminopyrimidin-5-yl)-7-ethyl-8-oxo-7,8-dihydro-2,7-naphthyridin-1-yl)methane sulfonamide], with 202 nM.
As for `CCn1ccc2cc(Nc3cnccn3)nc(NS(C)(=O)=O)c2c1=O` [compound 745], the IC50 turned out to be 69 nM.
In the case of `NC(=O)Cn1ccc2cc(-c3cnc(N)nc3)nc(N[C@H]3C[C@@H](CO)C3)c2c1=O` [compound 746], the IC50 was found to be 44 nM.
Then `NC(=O)Cn1ccc2cc(Nc3cnccn3)nc(N[C@H]3C[C@@H](CO)C3)c2c1=O` [compound 747], with 17 nM; and `CCn1ccc2cc(-c3cnc(N)nc3)nc(N[C@H]3C[C@@H](CO)C3)c2c1=O` [compound 748], with 7 nM.
Then `CCn1ccc2cc(-c3cnc(N)nc3)nc(N[C@@H]3CCC(F)C3)c2c1=O` (stereo partly shown) [compound 749], with 45 nM.
Then `NC(=O)Cn1ccc2cc(-c3cnc(N)nc3)nc(NC3CCOCC3)c2c1=O` [compound 750], with 24 nM.
Consider `N#CCn1ccc2cc(-c3cnc(N)nc3)nc(NC3CCOCC3)c2c1=O` [compound 751], for which the IC50 turned out to be 70 nM.
Then `NC(=O)Cn1ccc2cc(Nc3cnccn3)nc(NC3CCCC3)c2c1=O` [compound 752], with 18 nM; and `N#CCn1ccc2cc(Nc3cnccn3)nc(NC3CCCC3)c2c1=O` [compound 753], with 27 nM.
As to `NC(=O)Cn1ccc2cc(Nc3cnccn3)nc(NC3CCC3)c2c1=O` [compound 754], the IC50 was determined as 12 nM.
Then `CC1(Cn2ccc3cc(Nc4cnccn4)nc(NC4CCC4)c3c2=O)COC1` [compound 755], with 9 nM; and `N#CCn1ccc2cc(-c3cnc(N)nc3)nc(NC3CCCC3)c2c1=O` [compound 756], with 117 nM; and `NC(=O)Cn1ccc2cc(-c3cnc(N)nc3)nc(NC3CCCC3)c2c1=O` [compound 757], with 59 nM.
Turning to `CC1(Cn2ccc3cc(-c4cnc(N)nc4)nc(NC4CC(F)(F)C4)c3c2=O)COC1` [compound 758], the IC50 was found to be 90 nM.
Then `NC(=O)Cn1ccc2cc(-c3cnc(N)nc3)nc(NC3CC(F)(F)C3)c2c1=O` [compound 759], with 175 nM.
As to `CC1(Cn2ccc3cc(-c4cnc(N)nc4)nc(NC4CCCC4)c3c2=O)COC1` [compound 760], the IC50 was 128 nM.
Regarding `Nc1ncc(-c2cc3ccn(CC4(CO)COC4)c(=O)c3c(NC3CCCC3)n2)cn1` [compound 761], the half-maximal inhibitory concentration (IC50) came to 66 nM.
On to `CC1(Cn2ccc3cc(Nc4cnccn4)nc(NC4CCCC4)c3c2=O)COC1` [compound 762], for which the half-maximal inhibitory concentration (IC50) is 22 nM.
Then `O=c1c2c(NC3CCCC3)nc(Nc3cnccn3)cc2ccn1CC1(CO)COC1` [compound 763], with 12 nM; and `CC1(Cn2ccc3cc(Nc4cnccn4)nc(NC4CC(F)(F)C4)c3c2=O)COC1` [compound 765], with 52 nM; and `O=c1[nH]ccc2cc(Nc3cnccn3)nc(NC3CCCC3)c12` [compound 766], with 7 nM.
Then `O=c1[nH]ccc2cc(Nc3cnccn3)nc(NC3CCC3)c12` [compound 767], with 3 nM; and `CC1(Cn2ccc3cc(-c4cnc(N)nc4)nc(NC4CCOCC4)c3c2=O)COC1` [compound 769], with 66 nM.
Then `Nc1ncc(-c2cc3ccn(C4COC4)c(=O)c3c(NC3CCOCC3)n2)cn1` [compound 770], with 36 nM; and `CC1(Cn2ccc3cc(-c4cnc(N)nc4)nc(NC4CCC4)c3c2=O)COC1` [compound 771], with 75 nM; and `Nc1ncc(-c2cc3ccn(C4COC4)c(=O)c3c(NC3CCC3)n2)cn1` [compound 772], with 25 nM.
`CC1(Cn2ccc3cc(-c4cnc(N)nc4)nc(NC4COC4)c3c2=O)COC1` [compound 773, 6-(2-Aminopyrimidin-5-yl)-2-((3-methyloxetan-3-yl)methyl)-8-(oxetan-3-ylamino)-2,7-naphthyridin-1(2H)-one]: the concentration for half-maximal inhibition (IC50) was 67 nM.
Then `Nc1ncc(-c2cc3ccn(C[C@H](O)CO)c(=O)c3c(NC3CCC3)n2)cn1` [compound 774], with 34 nM; and `O=c1c2c(NC3CCCC3)nc(Nc3cnccn3)cc2ccn1C[C@H](O)CO` [compound 775], with 10 nM.
Consider `Nc1ncc(-c2cc3ccn(C[C@H](O)CO)c(=O)c3c(NC3CCCC3)n2)cn1` [compound 776], for which the IC50 is 18 nM.
Then `[2H]C([2H])([2H])n1ccc2cc(Nc3cc(C)c(Cl)cn3)nc(NC(C)(C)CO)c2c1=O` [compound 777], with 137 nM; and `CCn1ccc2cc(Nc3cc(C)ccn3)nc(NCC(O)C(F)(F)F)c2c1=O` (stereo not shown) [compound 778], with 413 nM; and `CCn1ccc2cc(Nc3cnccn3)nc(NCC(O)C(F)(F)F)c2c1=O` (stereo not shown) [compound 779, 2-ethyl-6-(pyrazin-2-ylamino)-8-((3,3,3-trifluoro-2-hydroxypropyl)amino)-2,7-naphthyridin-1(2H)-one], with 145 nM.
Then `CCn1ccc2cc(Nc3cc(C)ccn3)nc(NCCC(F)(F)F)c2c1=O` [compound 780], with 862 nM; and `CCn1ccc2cc(Nc3cnccn3)nc(NCCC(F)(F)F)c2c1=O` [compound 781], with 299 nM.
Then `CCn1ccc2cc(Nc3cc(C)ccn3)nc(NC(C)(C)CCO)c2c1=O` [compound 782], with 217 nM.
On to `CCn1ccc2cc(Nc3cnccn3)nc(NC(C)(C)CCO)c2c1=O` [compound 783], for which the IC50 came to 179 nM.
Then `Cn1cc(Cl)c2cc(Nc3cnccn3)nc(N[C@H]3CC[C@@H](O)CC3)c2c1=O` [compound 785], with 144 nM.
Then `[2H]C([2H])([2H])n1ccc2cc(Nc3cc(Cl)ccn3)nc(NC(C)(C)CO)c2c1=O` [compound 786], with 71 nM.
For `CCn1ccc2cc(Nc3cnccn3)nc(NC3(CO)CCCC3)c2c1=O` [compound 788], the IC50 turned out to be 324 nM.
In the case of `CCn1ccc2cc(Nc3cc(C)ccn3)nc(N[C@@H]3CC[C@@H](CO)C3)c2c1=O` [compound 790], the IC50 is 88 nM.
Then `CCn1ccc2cc(Nc3cnccn3)nc(N[C@@H]3CC[C@@H](CO)C3)c2c1=O` [compound 791], with 58 nM; and `CCn1ccc2cc(Nc3cc(C)ccn3)nc(N[C@H]3CC[C@@H](CO)C3)c2c1=O` [compound 792], with 33 nM.
